Data from the NIST ThermoML archive (doi:10.1007/s10765-009-0593-3).

Experiment: xn = mol fraction of the nth substance listed
Conditions: 101 kPa, Liquid; for speed of sound: Pulse-echo method

CCCOCC(C)OCC(C)O (stereo not given) [1-(1-methyl-2-propoxyethoxy)-2-propanol] + CCCCN(CCCC)CCCC
Conditions | mass density, 288.15 K [kg/m3] | mass density, 293.15 K [kg/m3] | mass density, 298.15 K [kg/m3] | mass density, 303.15 K [kg/m3] | mass density, 308.15 K [kg/m3] | speed of sound, 288.15 K [m/s] | speed of sound, 293.15 K [m/s] | speed of sound, 298.15 K [m/s] | speed of sound, 303.15 K [m/s] | speed of sound, 308.15 K [m/s]
x1 = 0.1122 | 794.307 | 790.425 | 786.535 | 782.639 | 778.737 | 1282.3 | 1263 | 1243.9 | 1225 | 1206.3
x1 = 0.1665 | 800.621 | 796.684 | 792.738 | 788.781 | 784.827 | 1282.3 | 1262.8 | 1243.7 | 1224.8 | 1206.1
x1 = 0.2084 | 805.602 | 801.628 | 797.652 | 793.661 | 789.668 | 1282.3 | 1262.9 | 1243.8 | 1224.9 | 1206.2
x1 = 0.2538 | 811.153 | 807.13 | 803.115 | 799.083 | 795.057 | 1282.4 | 1263.2 | 1244.1 | 1225.3 | 1206.5
x1 = 0.313 | 818.607 | 814.554 | 810.479 | 806.404 | 802.329 | 1282.5 | 1264 | 1244.9 | 1226.1 | 1207.4
x1 = 0.3558 | 824.155 | 820.06 | 815.967 | 811.844 | 807.734 | 1282.8 | 1264.8 | 1245.7 | 1227 | 1208.3
x1 = 0.4148 | 832.006 | 827.869 | 823.733 | 819.576 | 815.399 | 1283.3 | 1266.2 | 1247.2 | 1228.5 | 1209.8
x1 = 0.4472 | 836.41 | 832.261 | 828.099 | 823.913 | 819.704 | 1283.7 | 1267.1 | 1248.1 | 1229.4 | 1210.8
x1 = 0.5008 | 843.844 | 839.656 | 835.454 | 831.251 | 826.995 | 1284.5 | 1268.8 | 1249.8 | 1231.2 | 1212.6
x1 = 0.5451 | 850.136 | 845.938 | 841.706 | 837.473 | 833.167 | 1285.5 | 1270.3 | 1251.5 | 1232.8 | 1214.3
x1 = 0.6077 | 859.289 | 855.06 | 850.786 | 846.555 | 842.165 | 1287.2 | 1272.8 | 1254 | 1235.4 | 1217
x1 = 0.6566 | 866.709 | 862.46 | 858.15 | 853.912 | 849.462 | 1288.9 | 1274.9 | 1256.2 | 1237.7 | 1219.3
x1 = 0.7143 | 875.786 | 871.507 | 867.175 | 862.905 | 858.43 | 1291.3 | 1277.5 | 1258.8 | 1240.4 | 1222.1
x1 = 0.7514 | 881.851 | 877.544 | 873.195 | 868.91 | 864.43 | 1293.2 | 1279.3 | 1260.7 | 1242.3 | 1224.1
x1 = 0.8016 | 890.298 | 885.967 | 881.597 | 877.285 | 872.799 | 1296.1 | 1281.7 | 1263.2 | 1245 | 1226.8
x1 = 0.856 | 897.74 | 895.367 | 890.981 | 886.63 | 882.174 | 1299.9 | 1284.4 | 1266.1 | 1247.9 | 1230
x1 = 0.904 | 908.188 | 903.8 | 899.4 | 894.989 | 890.566 | 1303.7 | 1286.8 | 1268.7 | 1250.6 | 1232.8
x1 = 0.9553 | 917.078 | 912.677 | 908.256 | 903.826 | 899.408 | 1308.3 | 1289.5 | 1271.5 | 1253.5 | 1235.9

CCCOCC(C)OCC(C)O (stereo not given) [1-(1-methyl-2-propoxyethoxy)-2-propanol] + CCCCN
Conditions | mass density, 288.15 K [kg/m3] | mass density, 293.15 K [kg/m3] | mass density, 298.15 K [kg/m3] | mass density, 303.15 K [kg/m3] | mass density, 308.15 K [kg/m3] | speed of sound, 288.15 K [m/s] | speed of sound, 293.15 K [m/s] | speed of sound, 298.15 K [m/s] | speed of sound, 303.15 K [m/s] | speed of sound, 308.15 K [m/s]
x1 = 0.1119 | 781.657 | 776.972 | 772.263 | 767.527 | 762.757 | 1299.1 | 1277.8 | 1256.7 | 1235.5 | 1214.2
x1 = 0.1625 | 797.6 | 792.951 | 788.269 | 783.562 | 778.83 | 1301.8 | 1281 | 1260.2 | 1239.5 | 1218.7
x1 = 0.2153 | 812.62 | 807.989 | 803.334 | 798.647 | 793.946 | 1304.3 | 1283.9 | 1263.4 | 1243.2 | 1222.8
x1 = 0.2414 | 819.423 | 814.802 | 810.159 | 805.481 | 800.782 | 1305.4 | 1285.2 | 1264.8 | 1244.8 | 1224.6
x1 = 0.3043 | 834.258 | 829.657 | 825.032 | 820.381 | 815.702 | 1307.7 | 1287.9 | 1267.8 | 1248.3 | 1228.4
x1 = 0.35 | 843.808 | 839.22 | 834.611 | 829.962 | 825.299 | 1309.1 | 1289.5 | 1269.7 | 1250.3 | 1230.7
x1 = 0.4162 | 856.225 | 851.642 | 847.04 | 842.409 | 837.754 | 1310.7 | 1291.4 | 1271.9 | 1252.8 | 1233.4
x1 = 0.4519 | 862.336 | 857.764 | 853.179 | 848.559 | 843.907 | 1311.3 | 1292.2 | 1272.8 | 1253.8 | 1234.6
x1 = 0.4946 | 869.26 | 864.701 | 860.118 | 855.511 | 850.865 | 1311.9 | 1292.9 | 1273.7 | 1254.8 | 1235.7
x1 = 0.547 | 877.184 | 872.638 | 868.071 | 863.48 | 858.867 | 1312.4 | 1293.5 | 1274.5 | 1255.8 | 1236.8
x1 = 0.5938 | 883.779 | 879.25 | 874.697 | 870.123 | 865.527 | 1312.6 | 1293.8 | 1275 | 1256.3 | 1237.5
x1 = 0.6567 | 891.947 | 887.44 | 882.917 | 878.364 | 873.793 | 1312.5 | 1293.9 | 1275.2 | 1256.6 | 1237.9
x1 = 0.6997 | 897.047 | 892.555 | 888.041 | 883.505 | 878.95 | 1312.2 | 1293.7 | 1275.1 | 1256.5 | 1238
x1 = 0.7665 | 904.096 | 899.635 | 895.15 | 890.644 | 886.119 | 1311.5 | 1293 | 1274.6 | 1256.1 | 1237.7
x1 = 0.8068 | 907.864 | 903.41 | 898.94 | 894.449 | 889.942 | 1310.8 | 1292.3 | 1274.1 | 1255.7 | 1237.4
x1 = 0.8466 | 911.283 | 906.844 | 902.376 | 897.903 | 893.412 | 1310 | 1291.6 | 1273.4 | 1255.2 | 1236.9
x1 = 0.9038 | 915.886 | 911.457 | 906.999 | 902.546 | 898.065 | 1308.6 | 1290.3 | 1272.1 | 1254.2 | 1236.1
x1 = 0.9528 | 919.898 | 915.486 | 911.061 | 906.607 | 902.137 | 1307.2 | 1288.9 | 1270.9 | 1253.1 | 1235.2
